Numbered stars: 1 amine (or outer) side, 2 acyl side, 3 side chain; on linkers, the order of the positions; unused ones are H or OH. Square brackets hold non-standard residues; d marks the D form. Side chains are listed from the residue outwards. Peptide text beside a SMILES is read from it. * marks the point of attachment. C20 diacid = O=C(O)CCCCCCCCCCCCCCCCCCC(=O)*; C18 diacid = O=C(O)CCCCCCCCCCCCCCCCC(=O)*; αMePhe(2-F) = C[C@](N)(Cc1ccccc1F)C(=O)O; γGlu = O=C(O)[C@H](CCC(=O)[*:2])N[*:1]; αMeF = C[C@](N)(Cc1ccccc1)C(=O)O; αMeL = CC(C)C[C@](C)(N)C(=O)O; AEEA = NCCOCCOCC(=O)O; Aib = CC(C)(N)C(=O)O
What was measured:
human Gcg receptor = target: T1, human Gcg receptor (Homo sapiens, UniProt P47871); experiment: [125I]-Glucagon binding (SPA), human Gcg receptor; settings: read-out: hGLcgR Ki, nM (SEM, n)
T1 construct: expressed in transfected cells; crude membranes
In short: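 Crude membranes from cells expressing the receptor, prepared by hypotonic lysis in 50 mM Tris HCl pH 7.5 with protease inhibitors, homogenization and differential centrifugation, were used in a WGA-bead SPA. Binding buffer: 25 mM HEPES pH 7.4, 2.5 mM CaCl2, 1 mM MgCl2, bacitracin, Tween-20.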

human GIP receptor = target: T2, human GIP receptor (Homo sapiens, UniProt P48546); experiment: [125I]-GIP binding (SPA), human GIP receptor; settings: read-out: hGIPR Ki, nM (SEM, n)
T2 construct: expressed in transfected cells; crude membranes
T2 sequence (P48546 22-466): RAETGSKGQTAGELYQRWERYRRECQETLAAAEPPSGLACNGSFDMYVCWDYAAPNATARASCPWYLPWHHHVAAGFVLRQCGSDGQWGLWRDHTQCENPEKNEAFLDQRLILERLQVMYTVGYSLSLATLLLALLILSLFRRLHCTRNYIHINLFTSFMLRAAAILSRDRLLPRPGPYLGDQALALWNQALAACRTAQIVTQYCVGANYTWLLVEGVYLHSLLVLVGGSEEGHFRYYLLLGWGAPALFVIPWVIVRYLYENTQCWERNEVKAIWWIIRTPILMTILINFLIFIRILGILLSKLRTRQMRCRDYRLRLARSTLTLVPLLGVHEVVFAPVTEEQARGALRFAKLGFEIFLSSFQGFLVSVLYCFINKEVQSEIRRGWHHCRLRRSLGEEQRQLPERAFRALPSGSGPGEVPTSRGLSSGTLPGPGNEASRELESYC

[1] = target: human GLP-1 receptor (GLP-1R) (Homo sapiens, UniProt P43220); experiment: cAMP pharmacological functional assay in presence of casein, hGLP-1R; type: cell-based; settings: HEK293 cells expressing hGLP-1R, 0.1% Casein, geometric mean; read-out: hGLP1R cAMP Rel EC50 nM (SEM, n)
[2] = target: T3, gastric inhibitory peptide receptor (GIPR) (Homo sapiens, UniProt P48546); experiment: cAMP pharmacological functional assay in presence of casein, hGIPR; type: cell-based; settings: HEK293 cells expressing hGIPR, 0.1% Casein, geometric mean; read-out: hGIPR cAMP Rel EC50 nM (SEM, n)
T3 sequence (P48546 22-466): T2 sequence (P48546 22-466)

human GLP-1R = human GLP-1R (Homo sapiens, UniProt P43220); experiment: [125I]-GLP-1 binding (SPA), human GLP-1 receptor; parameters: expressed in transfected cells; crude membranes; settings: read-out: hGLP1R Ki, (nM) (SEM, n)
In short: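 Ki values are geometric means with SEM over independent replicates on different days, derived from IC50s fitted by four-parameter nonlinear regression. The assay used crude cell membranes in HEPES buffer, pH 7.4, containing CaCl2, MgCl2, bacitracin and TWEEN-20.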

T1 sequence (P47871 26-477): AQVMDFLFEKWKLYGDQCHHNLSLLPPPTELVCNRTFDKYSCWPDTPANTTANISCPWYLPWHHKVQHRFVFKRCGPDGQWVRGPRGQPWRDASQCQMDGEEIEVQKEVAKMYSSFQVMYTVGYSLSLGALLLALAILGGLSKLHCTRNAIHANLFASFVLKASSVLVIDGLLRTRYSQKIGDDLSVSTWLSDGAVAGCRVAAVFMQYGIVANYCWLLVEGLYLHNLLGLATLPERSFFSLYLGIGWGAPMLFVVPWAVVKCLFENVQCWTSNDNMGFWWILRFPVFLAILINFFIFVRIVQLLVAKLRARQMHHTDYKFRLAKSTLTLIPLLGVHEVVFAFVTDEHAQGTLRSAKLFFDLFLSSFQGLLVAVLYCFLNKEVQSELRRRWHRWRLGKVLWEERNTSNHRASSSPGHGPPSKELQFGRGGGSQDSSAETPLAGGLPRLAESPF
human GLP-1 receptor (GLP-1R), sequence (P43220 24-463): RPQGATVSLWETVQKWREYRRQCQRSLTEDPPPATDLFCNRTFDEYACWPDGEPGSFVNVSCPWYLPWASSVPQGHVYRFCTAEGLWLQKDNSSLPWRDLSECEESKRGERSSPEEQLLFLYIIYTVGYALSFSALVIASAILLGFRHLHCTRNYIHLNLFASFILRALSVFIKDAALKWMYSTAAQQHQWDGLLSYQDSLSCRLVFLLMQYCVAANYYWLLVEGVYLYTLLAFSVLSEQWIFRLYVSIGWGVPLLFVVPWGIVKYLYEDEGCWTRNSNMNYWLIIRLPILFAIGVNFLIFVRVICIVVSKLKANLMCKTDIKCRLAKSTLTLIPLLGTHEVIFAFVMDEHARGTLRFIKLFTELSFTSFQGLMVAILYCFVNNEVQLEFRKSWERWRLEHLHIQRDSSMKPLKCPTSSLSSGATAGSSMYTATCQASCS
human GLP-1R, sequence (P43220 24-463): as above

Row | SMILES | Ki (human Gcg receptor) [nM] | Ki (human GIP receptor) [nM] | EC50 [1] [nM] | EC50 [2] [nM] | Ki (human GLP-1R) [nM]
1 | CC[C@H](C)[C@H](NC(=O)[C@H](CO)NC(=O)[C@H](CC(=O)O)NC(=O)[C@H](CC(C)C)NC(=O)[C@H](CC(C)C)NC(=O)[C@@H](NC(=O)[C@H](CO)NC(=O)[C@H](Cc1ccc(O)cc1)NC(=O)[C@H](CC(=O)O)NC(=O)[C@H](CO)NC(=O)[C@@H](NC(=O)[C@H](Cc1ccccc1)NC(=O)[C@@H](NC(=O)CNC(=O)[C@H](CCC(=O)O)NC(=O)C(C)(C)NC(=O)[C@@H](N)Cc1ccc(O)cc1)[C@@H](C)O)[C@@H](C)O)[C@@H](C)CC)C(=O)N[C@@H](C)C(=O)N[C@@H](CCC(N)=O)C(=O)NC(C)(C)C(=O)N[C@@H](C)C(=O)N[C@@H](Cc1ccccc1)C(=O)N[C@H](C(=O)N[C@@H](CCCCNC(=O)COCCOCCNC(=O)COCCOCCNC(=O)CC[C@H](NC(=O)CCCCCCCCCCCCCCCCCCC(=O)O)C(=O)O)C(=O)N[C@@H](Cc1ccc(O)cc1)C(=O)N[C@@H](CC(C)C)C(=O)N[C@@H](CC(C)C)C(=O)N[C@@H](C)C(=O)NC(C)(C)C(=O)NCC(=O)N1CCC[C@H]1C(=O)N[C@@H](CO)C(=O)N[C@@H](CO)C(=O)NCC(=O)N[C@@H](C)C(=O)N1CCC[C@H]1C(=O)N1CCC[C@H]1C(=O)N1CCC[C@H]1C(=O)N[C@@H](CO)C(N)=O)[C@@H](C)CC [Example 10] (H-Y[Aib]EGTFTSDYSILLDSIAQ[Aib]AFIK([AEEA-AEEA-γGlu-C20 diacid])YLLA[Aib]GPSSGAPPPS-NH2) | 226 | 0.109 | 7.64 | 1.28 | 9.33
2 | CC[C@H](C)[C@H](NC(=O)[C@H](CC(C)C)NC(=O)[C@H](Cc1ccc(O)cc1)NC(=O)[C@H](CCC(=O)O)NC(=O)[C@@H](NC(=O)[C@H](Cc1ccccc1)NC(=O)[C@H](CCC(=O)O)NC(=O)C(C)(C)NC(=O)[C@H](CCC(N)=O)NC(=O)[C@H](C)NC(=O)[C@H](CCCCNC(=O)COCCOCCNC(=O)COCCOCCNC(=O)CC[C@H](NC(=O)CCCCCCCCCCCCCCCCCCC(=O)O)C(=O)O)NC(=O)[C@H](CCC(=O)O)NC(=O)[C@H](CC(=O)O)NC(=O)[C@H](CC(C)C)NC(=O)[C@](C)(CC(C)C)NC(=O)[C@@H](NC(=O)[C@H](CO)NC(=O)[C@H](Cc1ccc(O)cc1)NC(=O)[C@H](CC(=O)O)NC(=O)[C@H](CO)NC(=O)[C@@H](NC(=O)[C@](C)(Cc1ccccc1F)NC(=O)[C@@H](NC(=O)CNC(=O)[C@H](CCC(=O)O)NC(=O)C(C)(C)NC(=O)[C@@H](N)Cc1ccc(O)cc1)[C@@H](C)O)[C@@H](C)O)[C@@H](C)CC)[C@@H](C)CC)C(=O)N[C@@H](CCC(=O)O)C(=O)NCC(=O)NCC(N)=O [Example 103] (H-Y[Aib]EGT[αMePhe(2-F)]TSDYSI[αMeL]LDEK([AEEA-AEEA-γGlu-C20 diacid])AQ[Aib]EFIEYLIEGG-NH2; N-terminus assumed) | 40.3 | 0.0645 | 0.101 | 0.0693 | 6.68
3 | CC[C@H](C)[C@H](NC(=O)[C@H](CC(C)C)NC(=O)[C@H](Cc1ccc(O)cc1)NC(=O)[C@@H](CCC(=O)O)NC(=O)[C@@H](NC(=O)[C@H](Cc1ccccc1)NC(=O)[C@H](C)NC(=O)C(C)(C)NC(=O)[C@H](CCC(N)=O)NC(=O)[C@H](C)NC(=O)[C@H](CCCCNC(=O)COCCOCCNC(=O)COCCOCCNC(=O)CC[C@H](NC(=O)CCCCCCCCCCCCCCCCCCC(=O)O)C(=O)O)NC(=O)[C@H](CCCCN)NC(=O)[C@H](CC(=O)O)NC(=O)[C@H](CC(C)C)NC(=O)[C@H](CC(C)C)NC(=O)[C@@H](NC(=O)[C@H](CO)NC(=O)[C@H](Cc1ccc(O)cc1)NC(=O)[C@H](CC(=O)O)NC(=O)[C@H](CO)NC(=O)[C@@H](NC(=O)[C@H](Cc1ccccc1)NC(=O)[C@@H](NC(=O)CNC(=O)[C@H](CCC(=O)O)NC(=O)C(C)(C)NC(=O)[C@@H](N)Cc1ccc(O)cc1)[C@@H](C)O)[C@@H](C)O)[C@@H](C)CC)[C@@H](C)CC)C(=O)N[C@@H](CCC(=O)O)C(=O)NCC(=O)NCC(=O)N1CCC[C@H]1C(=O)N[C@@H](CO)C(=O)N[C@@H](CO)C(=O)NCC(=O)N[C@@H](C)C(=O)N1CCC[C@H]1C(=O)N1CCC[C@H]1C(=O)N1CCC[C@H]1C(=O)N[C@@H](CO)C(N)=O [Example 84] | > 1100 | 0.143 | 0.374 | 0.0915 | 10.2
4 | CC[C@H](C)[C@H](NC(=O)[C@H](CC(C)C)NC(=O)[C@H](Cc1ccc(O)cc1)NC(=O)[C@H](CCC(=O)O)NC(=O)[C@@H](NC(=O)[C@H](Cc1ccccc1)NC(=O)[C@H](C)NC(=O)C(C)(C)NC(=O)[C@H](CCC(N)=O)NC(=O)[C@H](C)NC(=O)[C@H](CCCCNC(=O)COCCOCCNC(=O)COCCOCCNC(=O)CC[C@H](NC(=O)CCCCCCCCCCCCCCCCCCC(=O)O)C(=O)O)NC(=O)[C@H](CCCCN)NC(=O)[C@H](CC(=O)O)NC(=O)[C@H](CC(C)C)NC(=O)[C@H](CC(C)C)NC(=O)[C@@H](NC(=O)[C@H](CO)NC(=O)[C@H](Cc1c[nH]cn1)NC(=O)[C@H](CC(=O)O)NC(=O)[C@H](CO)NC(=O)[C@@H](NC(=O)[C@](C)(Cc1ccccc1)NC(=O)[C@@H](NC(=O)CNC(=O)[C@H](CCC(=O)O)NC(=O)C(C)(C)NC(=O)[C@@H](N)Cc1ccc(O)cc1)[C@@H](C)O)[C@@H](C)O)[C@@H](C)CC)[C@@H](C)CC)C(=O)N[C@@H](CCC(=O)O)C(=O)NCC(=O)NCC(=O)N1CCC[C@H]1C(=O)N[C@@H](CO)C(=O)N[C@@H](CO)C(=O)NCC(=O)N[C@@H](C)C(=O)N1CCC[C@H]1C(=O)N1CCC[C@H]1C(=O)N1CCC[C@H]1C(=O)N[C@@H](CO)C(N)=O [Example 128] (H-Y[Aib]EGT[αMeF]TSDHSILLDKK([AEEA-AEEA-γGlu-C20 diacid])AQ[Aib]AFIEYLIEGGPSSGAPPPS-NH2) | 433 | 0.0625 | 0.0924 | 0.0694 | 1.88
5 | CC[C@H](C)[C@H](NC(=O)[C@H](CC(C)C)NC(=O)[C@H](Cc1ccc(O)cc1)NC(=O)[C@H](CCC(=O)O)NC(=O)[C@@H](NC(=O)[C@H](Cc1ccccc1)NC(=O)[C@H](C)NC(=O)C(C)(C)NC(=O)[C@H](CCC(N)=O)NC(=O)[C@H](C)NC(=O)[C@H](CCCCNC(=O)COCCOCCNC(=O)COCCOCCNC(=O)CC[C@H](NC(=O)CCCCCCCCCCCCCCCCC(=O)O)C(=O)O)NC(=O)[C@H](CCC(=O)O)NC(=O)[C@H](CC(=O)O)NC(=O)[C@H](CC(C)C)NC(=O)[C@H](CC(C)C)NC(=O)[C@@H](NC(=O)[C@H](CO)NC(=O)[C@H](Cc1ccc(O)cc1)NC(=O)[C@H](CC(=O)O)NC(=O)[C@H](CO)NC(=O)[C@@H](NC(=O)[C@H](Cc1ccccc1)NC(=O)[C@@H](NC(=O)CNC(=O)[C@H](CCC(=O)O)NC(=O)C(C)(C)NC(=O)[C@@H](N)Cc1ccc(O)cc1)[C@@H](C)O)[C@@H](C)O)[C@@H](C)CC)[C@@H](C)CC)C(=O)N[C@@H](CCC(=O)O)C(=O)NCC(=O)NCC(N)=O [Example 269] (H-Y[Aib]EGTFTSDYSILLDEK([AEEA-AEEA-γGlu-C18 diacid])AQ[Aib]AFIEYLIEGG-NH2) | > 1100 | 0.152 | 0.0595 | 0.257 | 7.1
6 | CC[C@H](C)[C@H](NC(=O)[C@H](CC(C)C)NC(=O)[C@H](Cc1ccc(O)cc1)NC(=O)[C@@H](CCC(=O)O)NC(=O)[C@@H](NC(=O)[C@H](Cc1ccccc1)NC(=O)[C@@H](NC(=O)C(C)(C)NC(=O)[C@H](CCC(N)=O)NC(=O)[C@H](C)NC(=O)[C@H](CCCCNC(=O)COCCOCCNC(=O)COCCOCCNC(=O)CC[C@H](NC(=O)CCCCCCCCCCCCCCCCCCC(=O)O)C(=O)O)NC(=O)[C@H](CCC(=O)O)NC(=O)[C@H](CC(=O)O)NC(=O)[C@H](CC(C)C)NC(=O)[C@](C)(CC(C)C)NC(=O)[C@@H](NC(=O)[C@H](CO)NC(=O)C(C)(C)NC(=O)[C@H](CC(=O)O)NC(=O)[C@H](CO)NC(=O)[C@@H](NC(=O)[C@](C)(Cc1ccccc1F)NC(=O)[C@@H](NC(=O)CNC(=O)[C@H](CCC(=O)O)NC(=O)C(C)(C)NC(=O)[C@@H](N)Cc1ccc(O)cc1)[C@@H](C)O)[C@@H](C)O)[C@@H](C)CC)[C@@H](C)O)[C@@H](C)CC)C(=O)N[C@@H](CCC(=O)O)C(=O)NCC(=O)NCC(=O)N1CCC[C@H]1C(=O)N[C@@H](CO)C(=O)N[C@@H](CO)C(=O)NCC(=O)N[C@@H](C)C(=O)N1CCC[C@H]1C(=O)N1CCC[C@H]1C(=O)N1CCC[C@H]1C(=O)N[C@@H](CO)C(N)=O [Example 160] (H-Y[Aib]EGT[αMePhe(2-F)]TSD[Aib]SI[αMeL]LDEK([AEEA-AEEA-γGlu-C20 diacid])AQ[Aib]TFI[dE]YLIEGGPSSGAPPPS-NH2) | > 1060 | 5.98 | 0.0461 | 21 | 14.4

From US12252524B2, “GIP/GLP1 co-agonist compounds” (Eli Lilly and Company, priority 2018, dated 2025)
